From ChEMBL document CHEMBL5143553, “Structure-activity relationship and mechanistic study on guggulsterone derivatives; Discovery of new anti-pancreatic cancer candidate” (Bioorg Med Chem, 2022)
Activity calls are given as the source filed them. The rule behind the calls is not given here.

Tests used:
PANC-1 [1] = experiment: Preferential cytotoxic activity against human PANC-1 cells in nutrient-deprived medium; format: functional
PANC-1 [2] = experiment: Preferential cytotoxic activity against human PANC-1 cells in Dulbecco's modified Eagle's medium; format: functional, cell-based
[3] = Selectivity index, ratio of PC50 for Preferential cytotoxic activity against human PANC-1 cells in Dulbecco's modified Eagle's medium to PC50 for Preferential cytotoxic activity against human PANC-1 cells in nutrient-deprived medium; format: functional
PANC-1 [4] = experiment: Induction of morphological changes in human PANC-1 cells in nutrient-deprived medium assessed as induction of cell rounding and shrinkage at 10 uM within 24 hrs by Cyto-smart Lux2 live cell imaging based method; format: functional
PANC-1 [5] = experiment: Induction of morphological changes in human PANC-1 cells in nutrient-deprived medium assessed as induction of leakage of intracellular components into the media at 10 uM within 24 hrs by Cyto-smart Lux2 live cell imaging based method; format: functional
PANC-1 [6] = experiment: Induction of cell death in human PANC-1 cells in nutrient-deprived medium at 10 uM after 24 hrs by ethidium bromide-acridine orange double-staining assay; format: functional, cell-based
PANC-1 [7] = experiment: Inhibition of cell migration in human PANC-1 cells in DMEM medium assessed as wound area level at 3 uM after 24 hrs by wound-healing assay relative to initial area (reference value: 55%); format: functional; design: scale not given: the % may be the effect or the level left
PANC-1 [8] = experiment: Inhibition of cell migration in human PANC-1 cells in DMEM medium assessed as wound area level at 5 uM after 24 hrs by wound-healing assay relative to initial area (reference value: 55%); format: functional; design: scale not given: the % may be the effect or the level left
PANC-1 [9] = experiment: Inhibition of cell migration in human PANC-1 cells in DMEM medium assessed as wound area level at 3 uM after 48 hrs by wound-healing assay relative to initial area (reference value: 23%); format: functional; design: scale not given: the % may be the effect or the level left
PANC-1 [10] = experiment: Inhibition of cell migration in human PANC-1 cells in DMEM medium assessed as wound area level at 5 uM after 48 hrs by wound-healing assay relative to initial area (reference value: 23%); format: functional; design: scale not given: the % may be the effect or the level left
PANC-1 [11] = experiment: Inhibition of colony formation in human PANC-1 cells in DMEM medium at 1 uM incubated for 10 days relative to control; format: functional; settings: PANC-1, 240 h, time 10 day
PANC-1 [12] = experiment: Inhibition of colony formation in human PANC-1 cells in DMEM medium at 3 uM incubated for 10 days relative to control; format: functional; settings: PANC-1, 240 h, time 10 day
PANC-1 [13] = experiment: Inhibition of colony formation in human PANC-1 cells in DMEM medium at 5 uM incubated for 10 days relative to control; format: functional; settings: PANC-1, 240 h, time 10 day
[14] = biological target: T1, Serine/threonine-protein kinase AKT (Homo sapiens) (UniProt P31751+Q9Y243+P31749); experiment: Inhibition of Akt S473 phosphorylation in human PANC-1 cells in NDM medium at 2.5 to 10 uM incubated for 6 hrs by Western blot analysis; format: cell-based; settings: dose 2.5-10 µM
[15] = biological target: T1, Serine/threonine-protein kinase AKT (Homo sapiens); experiment: Inhibition of Akt S473 phosphorylation in human PANC-1 cells in DMEM medium at 10 uM incubated for 6 hrs by Western blot analysis; format: cell-based
[16] = biological target: T1, Serine/threonine-protein kinase AKT (Homo sapiens); experiment: Inhibition of Akt signaling in human PANC-1 cells assessed as reduction in mTOR […] phosphorylation in NDM medium at 10 uM incubated for 6 hrs by Western blot analysis; format: cell-based
PANC-1 [17] = experiment: Effect on Akt protein expression in human PANC-1 cells in DMEM medium at 1 to 10 uM incubated for 6 hrs by Western blot analysis; format: functional, cell-based; settings: dose 1-10 µM
PANC-1 [18] = experiment: Effect on mTOR protein expression in human PANC-1 cells in DMEM medium at 1 to 10 uM incubated for 6 hrs by Western blot analysis; format: functional, cell-based; settings: dose 1-10 µM
PANC-1 [19] = experiment: Effect on mTOR protein expression in human PANC-1 cells in NDM medium at 1 to 10 uM incubated for 6 hrs by Western blot analysis; format: functional, cell-based; settings: dose 1-10 µM
PANC-1 [20] = experiment: Effect on […] protein expression in human PANC-1 cells in NDM medium at 1 to 10 uM incubated for 6 hrs by Western blot analysis; format: functional, cell-based; settings: dose 1-10 µM

T1 sequence (P31749 whole entry, looked up): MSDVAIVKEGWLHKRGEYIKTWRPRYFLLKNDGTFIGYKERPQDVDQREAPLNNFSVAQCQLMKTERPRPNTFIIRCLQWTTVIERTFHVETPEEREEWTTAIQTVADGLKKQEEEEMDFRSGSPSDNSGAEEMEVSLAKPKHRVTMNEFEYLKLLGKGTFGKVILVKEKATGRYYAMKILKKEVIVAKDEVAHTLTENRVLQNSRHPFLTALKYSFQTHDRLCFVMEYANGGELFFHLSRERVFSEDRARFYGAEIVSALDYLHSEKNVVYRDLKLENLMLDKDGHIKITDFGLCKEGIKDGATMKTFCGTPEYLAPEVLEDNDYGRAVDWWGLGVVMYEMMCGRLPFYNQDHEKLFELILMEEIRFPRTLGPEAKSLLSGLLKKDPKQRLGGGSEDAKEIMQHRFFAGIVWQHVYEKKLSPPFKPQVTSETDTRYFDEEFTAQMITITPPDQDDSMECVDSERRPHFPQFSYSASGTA
T1 sequence (P31751 whole entry, looked up): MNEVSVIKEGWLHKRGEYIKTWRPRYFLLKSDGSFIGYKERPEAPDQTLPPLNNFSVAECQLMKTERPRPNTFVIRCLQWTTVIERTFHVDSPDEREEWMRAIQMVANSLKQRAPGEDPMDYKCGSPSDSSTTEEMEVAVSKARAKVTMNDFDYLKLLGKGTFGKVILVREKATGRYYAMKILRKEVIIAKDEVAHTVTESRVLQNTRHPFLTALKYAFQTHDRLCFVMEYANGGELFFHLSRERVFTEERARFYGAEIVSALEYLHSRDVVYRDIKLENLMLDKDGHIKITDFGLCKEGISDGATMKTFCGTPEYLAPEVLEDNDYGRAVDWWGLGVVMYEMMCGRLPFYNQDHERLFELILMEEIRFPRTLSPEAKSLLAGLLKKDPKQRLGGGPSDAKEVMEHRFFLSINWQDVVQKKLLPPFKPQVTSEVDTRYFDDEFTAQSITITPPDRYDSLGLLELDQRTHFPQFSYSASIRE
T1 sequence (Q9Y243 whole entry, looked up): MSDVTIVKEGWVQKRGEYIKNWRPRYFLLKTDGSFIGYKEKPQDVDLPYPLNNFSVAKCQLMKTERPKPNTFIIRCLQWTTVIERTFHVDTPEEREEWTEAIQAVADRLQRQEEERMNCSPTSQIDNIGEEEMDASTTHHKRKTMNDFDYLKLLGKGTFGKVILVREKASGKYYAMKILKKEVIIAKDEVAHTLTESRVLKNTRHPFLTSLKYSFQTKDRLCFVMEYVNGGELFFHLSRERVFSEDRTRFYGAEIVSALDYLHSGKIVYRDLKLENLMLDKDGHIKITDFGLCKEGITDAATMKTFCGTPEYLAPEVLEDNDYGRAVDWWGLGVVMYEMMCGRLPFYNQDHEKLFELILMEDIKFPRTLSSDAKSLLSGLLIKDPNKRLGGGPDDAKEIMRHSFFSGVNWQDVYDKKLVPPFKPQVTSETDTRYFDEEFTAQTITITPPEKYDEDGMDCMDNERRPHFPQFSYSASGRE

SMILES	PC50 (PANC-1 [1])	IC50 (PANC-1 [2]) [µM]	Selectivity Index [3]	further results
C/C=C1/CC[C@H]2[C@@H]3CCC4=CC(=O)CC[C@]4(C)[C@H]3CC[C@]12C	3.2 µM	> 100	>31	
C[C@]12CCC(=O)C=C1CC[C@@H]1[C@@H]2CC[C@]2(C)C(=C(F)F)CC[C@@H]12	5.2 µM	91	18	
C=C1CC[C@H]2[C@@H]3CCC4=CC(=O)CC[C@]4(C)[C@H]3CC[C@]12C	3.5 µM	50	14	
C=C1C(F)(F)C[C@H]2[C@@H]3CCC4=CC(=O)CC[C@]4(C)[C@H]3CC[C@]12C	14 µM	> 100	>7.1	
C[C@]12CC[C@H]3[C@@H](CCC4=CC(=O)CC[C@@]43C)[C@@H]1CC(=O)[C@@H]2CSCCO	53 µM	100		
CCO[C@H]1CCCC2=CC(=O)CC[C@@]21C	>100 µM	> 100		
C=C1C(=O)C[C@H]2[C@@H]3CC[C@H]4CCCC[C@]4(C)[C@H]3CC[C@]12C	0.8 µM	3	3.8	
C=C1[C@H](O)C[C@H]2[C@@H]3CCC4=CC(=O)CC[C@]4(C)[C@H]3CC[C@]12C	57 µM	> 100		
C[C@]12CCC(=O)C=C1CC[C@@H]1[C@@H]2CC[C@]2(C)C(=C(F)F)[C@H](O)C[C@@H]12	18 µM	51	2.8	
C=C1C(=O)C[C@H]2[C@@H]3CC[C@H]4CC(=O)CC[C@]4(C)[C@H]3CC[C@]12C	0.72 µM	3.5	4.9	Activity (PANC-1 [4]): Active; Activity (PANC-1 [5]): Active; Activity (PANC-1 [6]): Active; Activity (PANC-1 [7]): 70%; Activity (PANC-1 [8]): 85%; Activity (PANC-1 [9]): 45%; Activity (PANC-1 [10]): 70%; inhibition at 1 µM (PANC-1 [11]): > 50.9%; inhibition at 3 µM (PANC-1 [12]): 97.7%; inhibition at 5 µM (PANC-1 [13]): 100%; inhibition [14]: Active; inhibition [15]: Active; inhibition [16]: Active; Activity (PANC-1 [17]): Non-Toxic; Activity (PANC-1 [18]): Non-Toxic; Activity (PANC-1 [19]): Non-Toxic; Activity (PANC-1 [20]): Non-Toxic
COCO[C@@H]1C[C@H]2[C@@H]3CCC4=CC(=O)CC[C@]4(C)[C@H]3CC[C@]2(C)C1=C(F)F	9.2 µM	29	3.2	
CC(=O)O[C@H]1CCCC2=CC(=O)CC[C@@]21C	>100 µM	> 100		
C=C1C(=O)C[C@H]2[C@@H]3CCC4=CC(=O)CC[C@]4(C)[C@H]3CC[C@]12C	1.6 µM		6.9	
C=C1[C@H](OCOC)C[C@H]2[C@@H]3CCC4=CC(=O)CC[C@]4(C)[C@H]3CC[C@]12C	31 µM	100	3.2	
C/C=C1/C(=O)C[C@H]2[C@@H]3CCC4=CC(=O)CC[C@]4(C)[C@H]3CC[C@]12C	Active			
